BindingDB's records for doi:10.1016/j.bmcl.2006.10.060 (Merck Research Laboratories, 2007)

test: Antagonist activity against human CCR2 receptor assessed as inhibition of MCP1-induced migration of human peripheral blood monocytes

IC50 | SMILES
0.28 µM | CCN(CC)CCCC(C)NC(=O)CCOc1cc(-c2cc(Cl)cc(Cl)c2)nn1-c1ccc2ccccc2c1 (stereo unspecified) [3-(3-(3,5-dichlorophenyl)-1-(naphthalen-2-yl)-1H-pyrazol-5-yloxy)-N-(5-(diethylamino)pentan-2-yl)propanamide]
0.032 µM | CCN(CC)CCCC(NC(=O)CCOc1cc(-c2cc(Cl)cc(Cl)c2)nn1-c1ccc2ccccc2c1)C(C)C (stereo unspecified) [3-(3-(3,5-dichlorophenyl)-1-(naphthalen-2-yl)-1H-pyrazol-5-yloxy)-N-(6-(diethylamino)-2-methylhexan-3-yl)propanamide]
0.178 µM | CCN(CC)CCCC(CC(C)C)NC(=O)CCOc1cc(-c2cc(Cl)cc(Cl)c2)nn1-c1ccc2ccccc2c1 (stereo unspecified) [3-(3-(3,5-dichlorophenyl)-1-(naphthalen-2-yl)-1H-pyrazol-5-yloxy)-N-(1-(diethylamino)-6-methylheptan-4-yl)propanamide]
0.083 µM | CCC(CCCN(CC)CC)NC(=O)CCOc1cc(-c2cc(Cl)cc(Cl)c2)nn1-c1ccc2ccccc2c1 (stereo unspecified) [3-(3-(3,5-dichlorophenyl)-1-(naphthalen-2-yl)-1H-pyrazol-5-yloxy)-N-(6-(diethylamino)hexan-3-yl)propanamide]

The remaining lines, values behind:

SMILES | IC50
COC(=O)[C@H](CCCN=C(N)N)NC(=O)CCOc1cc(-c2cc(Cl)cc(Cl)c2)nn1-c1ccc2ccccc2c1 [(S)-2-{3-[5-(3,5-dichloro-phenyl)-2-naphthalen-2-yl-2H-pyrazol-3-yloxy]-propionylamino}-5-guanidino-pentanoic acid methyl ester] | 0.118 µM
COC(=O)[C@H](CCCN=C(N)N)NC(=O)CCNc1cc(-c2cc(Cl)cc(Cl)c2)nn1-c1ccc2ccccc2c1 [(S)-2-{3-[5-(3,5-dichloro-phenyl)-2-naphthalen-2-yl-2H-pyrazol-3-ylamino]-propionylamino}-5-guanidino-pentanoic acid methyl ester] | 0.068 µM
COC(=O)[C@H](CCCN=C(N)N)NC(=O)CCCc1cc(-c2cc(Cl)cc(Cl)c2)nn1-c1ccc2ccccc2c1 [(S)-2-{4-[5-(3,5-dichloro-phenyl)-2-naphthalen-2-yl-2H-pyrazol-3-yl]-butyrylamino}-5-guanidino-pentanoic acid methyl ester] | 0.185 µM
CCN(CC)CCCC(C)NC(=O)CCNc1cc(-c2cc(Cl)cc(Cl)c2)nn1-c1ccc2ccccc2c1 (stereo unspecified) [3-(3-(3,5-dichlorophenyl)-1-(naphthalen-2-yl)-1H-pyrazol-5-ylamino)-N-(5-(diethylamino)pentan-2-yl)propanamide] | 0.054 µM
CCCC(CCCN(CC)CC)NC(=O)CCOc1cc(-c2cc(Cl)cc(Cl)c2)nn1-c1ccc2ccccc2c1 (stereo unspecified) [3-(3-(3,5-dichlorophenyl)-1-(naphthalen-2-yl)-1H-pyrazol-5-yloxy)-N-(1-(diethylamino)heptan-4-yl)propanamide] | 0.154 µM
CCC(C)CC(CCCN(CC)CC)NC(=O)CCOc1cc(-c2cc(Cl)cc(Cl)c2)nn1-c1ccc2ccccc2c1 (stereo unspecified) [3-(3-(3,5-dichlorophenyl)-1-(naphthalen-2-yl)-1H-pyrazol-5-yloxy)-N-(1-(diethylamino)-6-methyloctan-4-yl)propanamide] | 0.225 µM
O=C(CCCc1cc(-c2cc(Cl)cc(Cl)c2)nn1-c1ccc2ccccc2c1)NCCCc1ccncc1 [4-(3-(3,5-dichlorophenyl)-1-(naphthalen-2-yl)-1H-pyrazol-5-yl)-N-(3-(pyridin-4-yl)propyl)butanamide] | 1.4 µM
